Measured values taken from patent US8030344B2, “Inhibitors of histone deacetylase” (MethylGene Inc., priority 2007, dated 2011).

How the values were obtained:
[1] = test system: HMEC cells; experiment: MTT assay on HMEC cells; assay type: cell-based; conditions: similar MTT assay on HMEC cells
Procedure: (§1) HCT116 cells (2000/well) are plated into 96-well tissue culture plates one day before compound treatment. Representative compounds at various concentrations were added to the cells. The cells are incubated for 72 hours at 37° C. in 5% CO2 incubator. MTT (3-[4,5-dimethylthiazol-2-yl]-2,5 diphenyl tetrazolium bromide, Sigma) is added at a final concentration of 0.5 mg/ml and incubated with the cells for 4 hours before one volume of solubilization buffer (50% N,N-dimethylformamide, 20% SDS, pH 4.7) is added onto the cultured cells. After overnight incubation, solubilized dye is quantified by calorimetric reading at 570 nM using a reference at 630 nM. OD values are converted to cell numbers according to a standard growth curve of the relevant cell line. The concentration which reduces cell numbers to 50% of that of solvent treated cells is determined as MTT IC50. A similar assay is performed on HMEC cells.

[2] = biological target: HDAC-2 (Homo sapiens, UniProt Q92769); experiment: Similar assay measuring HDAC-2 inhibitory activity; assay type: biochemical
Procedure: (§2) The following protocol is used to assay the compounds of the invention. In the assay, the buffer used is 25 mM HEPES, pH 8.0, 137 mM NaCl, 2.7 mM KCl, 1 mM MgCl2 and the substrate is Boc-Lys(Ac)-AMC in a 50 mM stock solution in DMSO. The enzyme stock solution is 4.08 μg/mL in buffer.
(§3) The compounds are pre-incubated (2 μl in DMSO diluted to 13 μl in buffer for transfer to assay plate) with enzyme (20 μl of 4.08 μg/ml) for 10 minutes at room temperature (35 μl pre-incubation volume). The mixture is pre-incubated for 5 minutes at room temperature. The reaction is started by bringing the temperature to 37° C. and adding 15 μl substrate. Total reaction volume is 50 μl. The reaction is stopped after 20 minutes by addition of 50 μl developer, prepared as directed by Biomol (Fluor-de-Lys developer, Cat. # KI-105). A plate is incubated in the dark for 10 minutes at room temperature before reading (λEx=360 nm, λEm=470 nm, Cutoff filter at 435 nm). Similar assays are performed to measure HDAC-2 inhibitory activity

[3] = test system: HCT116 cells; experiment: MTT assay on HCT116 cells; assay type: cell-based; conditions: 72 hours incubation, concentration reducing cell numbers to 50% of solvent treated cells
Procedure: as §1

[4] = biological target: HDAC-1 (Homo sapiens, UniProt Q13547); experiment: Inhibition of histone deacetylase enzymatic (HDAC-1) activity, Boc-Lys(Ac)-AMC fluorescence assay; assay type: biochemical
Procedure: Inhibition of Histone Deacetylase Enzymatic (HDAC-1) Activity
as §2, §3

HDAC-2, sequence (Q92769 whole entry): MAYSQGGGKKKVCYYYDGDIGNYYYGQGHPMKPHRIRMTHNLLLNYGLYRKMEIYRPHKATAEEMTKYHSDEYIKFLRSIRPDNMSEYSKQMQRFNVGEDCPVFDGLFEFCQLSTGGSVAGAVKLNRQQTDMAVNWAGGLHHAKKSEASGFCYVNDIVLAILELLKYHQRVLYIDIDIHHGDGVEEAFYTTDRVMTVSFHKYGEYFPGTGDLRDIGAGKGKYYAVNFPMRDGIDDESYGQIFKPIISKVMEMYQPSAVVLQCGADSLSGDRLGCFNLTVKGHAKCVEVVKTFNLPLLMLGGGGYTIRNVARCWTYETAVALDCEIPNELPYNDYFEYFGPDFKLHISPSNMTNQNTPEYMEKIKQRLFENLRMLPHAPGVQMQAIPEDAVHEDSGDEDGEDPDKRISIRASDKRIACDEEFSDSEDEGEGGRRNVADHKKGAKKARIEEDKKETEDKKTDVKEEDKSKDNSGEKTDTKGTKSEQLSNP
HDAC-1, sequence (Q13547 whole entry): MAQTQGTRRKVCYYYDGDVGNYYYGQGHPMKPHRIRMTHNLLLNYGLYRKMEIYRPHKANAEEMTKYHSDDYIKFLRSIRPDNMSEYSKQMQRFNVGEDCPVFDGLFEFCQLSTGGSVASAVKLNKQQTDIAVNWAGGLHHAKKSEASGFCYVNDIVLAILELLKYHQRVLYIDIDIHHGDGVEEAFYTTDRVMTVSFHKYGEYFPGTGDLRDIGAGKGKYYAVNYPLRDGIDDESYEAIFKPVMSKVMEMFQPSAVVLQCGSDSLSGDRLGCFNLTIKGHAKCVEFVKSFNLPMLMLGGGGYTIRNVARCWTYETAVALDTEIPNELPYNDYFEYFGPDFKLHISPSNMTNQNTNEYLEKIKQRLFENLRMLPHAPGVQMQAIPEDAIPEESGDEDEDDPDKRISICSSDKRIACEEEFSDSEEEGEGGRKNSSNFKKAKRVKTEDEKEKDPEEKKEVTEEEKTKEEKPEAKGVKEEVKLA

Structure (SMILES) | IC50 [2] [µM] | IC50 ([3]; Homo sapiens, HCT-116) [µM] | IC50 [4] [µM] | IC50 [3] [µM] | IC50 ([1]; Homo sapiens) [µM] | IC50 [1] [µM]
COC(=O)N[C@H]1CCN(c2ccc(C(=O)Nc3ccccc3N)cn2)C1 [Compound 155, (S)-Methyl 1-(5-(2-aminophenylcarbamoyl)pyridin-2-yl)pyrrolidin-3-ylcarbamate] | ≤ 5 | ≤ 5 | ≤ 0.5 | – | ≤ 50 | –
Nc1ccccc1NC(=O)c1ccc(N2CC[C@H](NC(=O)OC3CCOCC3)C2)cc1 [Compound 200, (S)-tetrahydro-2H-pyran-4-yl 1-(4-(2-aminophenylcarbamoyl)phenyl)-pyrrolidin-3-ylcarbamate] | ≤ 0.5 | ≤ 0.5 | ≤ 0.5 | – | > 50 | –
CC(C)OC(=O)N[C@H]1CCN(c2ccc(C(=O)Nc3ccccc3N)cc2)C1 [Compound 198, (S)-isopropyl 1-(4-(2-aminophenylcarbamoyl)phenyl)-pyrrolidin-3-ylcarbamate] | ≤ 0.5 | ≤ 1 | ≤ 0.5 | – | ≤ 50 | –
CCOC(=O)N[C@H]1CCN(c2ccc(C(=O)Nc3ccccc3N)cc2)C1 [Compound 121, (S)-Ethyl 1-(4-(2-aminophenylcarbamoyl)phenyl)pyrrolidin-3-yl carbamate] | ≤ 0.5 | – | ≤ 0.5 | ≤ 1 | – | ≤ 50
CN(C)CC(=O)N[C@H]1CCN(c2ccc(C(=O)Nc3ccccc3N)cc2)C1 [Compound 141, (S)-N-(2-Aminophenyl)-4-(3-(2-(dimethylamino)acetamido)pyrrolidin-1-yl)benzamide] | ≤ 5 | ≤ 5 | ≤ 0.5 | – | > 50 | –
Nc1ccccc1NC(=O)c1ccc(N2CC[C@H](NC(=O)N3CCOCC3)C2)cc1 [Compound 126, (S)-N-(1-(4-(2-Aminophenylcarbamoyl)phenyl)pyrrolidin-3-yl)morpholine-4-carboxamide] | ≤ 1 | ≤ 1 | ≤ 0.5 | – | > 50 | –

More lines, main results first:

IC50 [2] [µM] | IC50 ([3]; Homo sapiens, HCT-116) [µM] | IC50 [4] [µM] | IC50 [3] [µM] | Structure (SMILES) | IC50 ([1]; Homo sapiens) [µM] | IC50 [1] [µM]
≤ 0.5 | ≤ 0.5 | ≤ 0.1 | – | COC(=S)N[C@H]1CCN(c2ccc(C(=O)Nc3ccccc3N)cc2)C1 [Compound 135, (S)-O-Methyl 1-(4-(2-aminophenylcarbamoyl)phenyl)pyrrolidin-3-ylcarbamothioate] | ≤ 10 | –
≤ 0.5 | ≤ 1 | ≤ 0.5 | – | Nc1ccccc1NC(=O)c1ccc(N2CC[C@H](NC(=O)OCC(F)(F)F)C2)cc1 [Compound 140, (S)-2,2,2-Trifluoroethyl 1-(4-(2-aminophenylcarbamoyl)phenyl) -pyrrolidin-3-ylcarbamate] | ≤ 10 | –
≤ 0.5 | ≤ 1 | ≤ 0.5 | – | CN(C)CCOC(=O)N[C@H]1CCN(c2ccc(C(=O)Nc3ccccc3N)cc2)C1 [Compound 119, (S)-2-(Dimethylamino)ethyl-1-(4-(2-aminophenylcarbamoyl) -phenyl)pyrrolidin-3-ylcarbamate] | > 50 | –
